Results taken from ChEMBL document CHEMBL1201862, “PubChem BioAssay data set” (2004).
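Cells were grown in 96-well plates and exposed to each compound for 48 hours at five concentrations; endpoints were interpolated linearly between bracketing concentrations, or set to the highest concentration if not reached. At the GI50, growth is halved.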 Activity calls are given as the source filed them. Cut-off read from the data, not from the text of the source: active = GI50 up to about 1.1 µM and inactive = higher.

Legend:
Experiment in all cases: NCI-60 cell line screen, 48 h
A498 = test system: A498
Malme-3M = test system: Malme-3M
Hs-578T = test system: Hs-578T
SK-MEL-5 = test system: SK-MEL-5
ACHN = test system: ACHN
RXF 393 = test system: RXF 393
UACC-257 = test system: UACC-257
NCI-H522 = test system: NCI-H522
OVCAR-8 = test system: OVCAR-8
UO-31 = test system: UO-31
HOP-62 = test system: HOP-62
LOX IMVI = test system: LOX IMVI
HT-29 = test system: HT-29
CCRF-CEM = test system: CCRF-CEM
SK-MEL-2 = test system: SK-MEL-2
PC-3 = test system: PC-3
SNB-19 = test system: SNB-19
MOLT-4 = test system: MOLT-4
SN12C = test system: SN12C
IGROV-1 = test system: IGROV-1

## CC(C)CNc1nc(N)nc(O)c1NC=O
A498
  GI50: > 100 µM (inactive)
Malme-3M
  GI50: > 100 µM (inactive)
Hs-578T
  GI50: > 100 µM (inactive)
SK-MEL-5
  GI50: > 100 µM (inactive)
ACHN
  GI50: > 100 µM (inactive)
RXF 393
  GI50: > 100 µM (inactive)
UACC-257
  GI50: > 100 µM (inactive)
NCI-H522
  GI50: > 100 µM (inactive)
OVCAR-8
  GI50: > 100 µM (inactive)
UO-31
  GI50: > 100 µM (inactive)
HOP-62
  GI50: > 100 µM (inactive)
LOX IMVI
  GI50: > 100 µM (inactive)
HT-29
  GI50: > 100 µM (inactive)
CCRF-CEM
  GI50: > 100 µM (inactive)
SK-MEL-2
  GI50: > 100 µM (inactive)
PC-3
  GI50: > 100 µM (inactive)
SNB-19
  GI50: > 100 µM (inactive)
MOLT-4
  GI50: > 100 µM (inactive)
SN12C
  GI50: > 100 µM (inactive)
IGROV-1
  GI50: > 100 µM (inactive)

## COC(=O)/C(=C/c1ccc(OC)cc1)c1cc(OC)c(OC)c(OC)c1
A498
  GI50: 7.05 µM (inactive)
Malme-3M
  GI50: 1.2 µM (inactive)
Hs-578T
  GI50: 0.957 µM (active)
SK-MEL-5
  GI50: 0.569 µM (active)
ACHN
  GI50: 9.93 µM (inactive)
RXF 393
  GI50: 1.24 µM (inactive)
UACC-257
  GI50: 7.83 µM (inactive)
NCI-H522
  GI50: 0.614 µM (active)
OVCAR-8
  GI50: 4.28 µM (inactive)
UO-31
  GI50: 5.46 µM (inactive)
HOP-62
  GI50: 1.53 µM (inactive)
LOX IMVI
  GI50: 4.42 µM (inactive)
HT-29
  GI50: 0.524 µM (active)
CCRF-CEM
  GI50: 1.39 µM (inactive)
SK-MEL-2
  GI50: 3.18 µM (inactive)
PC-3
  GI50: 0.693 µM (active)
SNB-19
  GI50: 3.62 µM (inactive)
MOLT-4
  GI50: 1.44 µM (inactive)
SN12C
  GI50: 5.08 µM (inactive)
IGROV-1
  GI50: 2.48 µM (inactive)
